Here are results for 41 substances from US6972319B1, “Pituitary adenylate cyclase activating peptide (PACAP)receptor 3 (R3) agonists and their pharmacological methods of use” (priority 1999, dated 2005).

pEC50: −log10 of the molar value. No end group written: not given here.

The target in one experiment is T1, PACAP-R2 (Homo sapiens, UniProt P32241).
T1 construct: expressed in transfected cells; host or cells: CHO cells
T1 sequence (P32241 31-457): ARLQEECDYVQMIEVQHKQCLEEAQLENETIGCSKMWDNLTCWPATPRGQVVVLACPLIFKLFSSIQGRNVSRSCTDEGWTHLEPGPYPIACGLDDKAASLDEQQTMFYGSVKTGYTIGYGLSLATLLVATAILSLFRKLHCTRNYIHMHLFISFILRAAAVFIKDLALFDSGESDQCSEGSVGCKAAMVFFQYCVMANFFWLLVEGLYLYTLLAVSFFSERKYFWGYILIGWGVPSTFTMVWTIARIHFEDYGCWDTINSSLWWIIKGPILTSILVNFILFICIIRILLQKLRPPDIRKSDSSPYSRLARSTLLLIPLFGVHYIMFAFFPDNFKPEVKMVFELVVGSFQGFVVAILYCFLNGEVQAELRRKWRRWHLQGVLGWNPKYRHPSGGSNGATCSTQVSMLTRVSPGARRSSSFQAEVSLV
The experiment is described as follows: Cyclic AMP SPA on CHO cells transfected with PACAP-R2. It is filed as cell-based. As to conditions: cAMP SPA, concentration at which 50% of maximum PACAP27 activity is achieved, NA = no detectable activities, read-out: R2 EC50. An outline of the steps: (§1)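 Potency reflects cyclic AMP accumulation, determined by SPA, after a 15 min, 37 C peptide exposure of CHO cells carrying the human receptor. Values are expressed relative to the maximal PACAP27 effect, with EC50 taken at its 50% level.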

The target in another experiment is T2, PACAP-R3 (Homo sapiens, UniProt P41587).
T2 sequence (P41587 24-438): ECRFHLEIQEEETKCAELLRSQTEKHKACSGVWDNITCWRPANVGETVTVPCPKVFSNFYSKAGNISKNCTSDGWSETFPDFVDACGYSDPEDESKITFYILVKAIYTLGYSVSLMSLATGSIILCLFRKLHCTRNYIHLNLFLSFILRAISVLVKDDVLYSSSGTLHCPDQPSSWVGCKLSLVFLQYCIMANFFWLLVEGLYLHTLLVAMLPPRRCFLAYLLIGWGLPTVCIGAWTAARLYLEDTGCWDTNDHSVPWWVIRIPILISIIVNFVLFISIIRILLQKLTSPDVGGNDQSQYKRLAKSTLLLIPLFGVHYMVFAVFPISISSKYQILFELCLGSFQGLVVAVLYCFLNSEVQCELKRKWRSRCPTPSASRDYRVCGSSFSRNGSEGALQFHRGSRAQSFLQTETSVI
The experiment is described as follows: Cyclic AMP SPA on CHO cells expressing PACAP R3. More on the design: expressed in transfected cells; host or cells: CHO cells (Geneticin selection). The settings on record: for pEC50: cAMP SPA, CHO cells transfected with PACAP-R3, concentration at which 50% of maximum PACAP27 activity is achieved, NA = no detectable activities, read-out: R3 EC50; for R3 Selectivity: ratio of EC50 at R2 versus EC50 at R3. Format: cell-based. The gist of the method: as §1

As a reminder, the pEC50 is −log10 of the EC50, conventionally taken in molar units. Take HSDGIFTDSYSRKRKQMAVKKYLAAVL-NH2 [PAC13]: the negative-log EC50 (pEC50) on PACAP-R2 was 8.52. Also, at PACAP-R3, the pEC50 was 9.30 and the “R3 Selectivity” value was found to be 6.
Turning to “HSDAVFTDNYTRLRKQMAAKKYLNSIKNVR [Peptide R3P150]”, the pEC50 at PACAP-R2 was 7.40; on PACAP-R3 it was 9.10. Further, the “R3 Selectivity” value on PACAP-R3 was found to be 50.
With “HSDAVFTDNYTRLRKQMAAKKYLNSIKNHR [Peptide R3P140]”, the pEC50 on PACAP-R2 was 7.82. Further, at PACAP-R3, the pEC50 was 9.52 and the “R3 Selectivity” value is reported as 50.
Regarding “HSDAVFTDNYTRLRKQMARKKYLNSIKNKR [Peptide R3P110]”, the pEC50 was 7.00 at PACAP-R2 and 9.30 on PACAP-R3. For the same substance, the “R3 Selectivity” value on PACAP-R3 turned out to be 200.
Take “HSDAVFTDNYTRLRKQVAAKKYLQSILKKR [Peptide R3P84]”: the pEC50 on PACAP-R2 was 8.60. Further, at PACAP-R3, the pEC50 is 10.22 and the “R3 Selectivity” value turned out to be 40.
Turning to ESDGIFTDSYSRYRKQMAVKKYLAAVL-NH2 [PAC1], the negative logarithm of the EC50 (pEC50) at PACAP-R2 is 6.01. Further, on PACAP-R3, the pEC50 was 8.00 and the “R3 Selectivity” value came to 97.
Consider HSDKIFTDSYSRYRKQMAVKKYLAAVL-NH2 [PAC4], for which the pEC50 on PACAP-R2 was 7.35; at PACAP-R3 it was 8.15. Moreover, the “R3 Selectivity” value on PACAP-R3 is on record as 6.
The matching figures for “HSDAVFTDNYTKLRKQLAAKKYLNDILNGGT [Peptide R3P11]”: 8.00, 8.52 and 3.
Regarding “HSDAVFTDNYTRLRKQLAVKKYLNSIKKGGT [Peptide R3P25]”, at PACAP-R2, the pEC50 is 7.82. In addition, at PACAP-R3, the pEC50 was 9.15 and the “R3 Selectivity” value is given as 20.
For HSDGIFTDSYSRYRKQKAVKKYLAAVL-NH2 [PAC17], the pEC50 at PACAP-R2 was 9.60; at PACAP-R3, 9.82. Further, the “R3 Selectivity” value on PACAP-R3 was determined as 1.6.
In the case of “HSDAVFTDNYTRLRKQVAAKKYLNSIKKKR [Peptide R3P78]”, the pEC50 on PACAP-R2 was 6.60; on PACAP-R3, 8.96. The “R3 Selectivity” value at PACAP-R3 is recorded as 230.
In the case of “HSDAVFTDNYTRLRKQLAAKKYLNDIKKGG [Peptide R3P31]”, on PACAP-R2, the negative logarithm of the EC50 (pEC50) was < 7.00. On PACAP-R3, the pEC50 was 9.52 and the “R3 Selectivity” value is recorded as >300.
In the case of “HSDAVFTDNYTRLRKQMAGKKYLNSIPNRI [rR3P180]”, the values for the pEC50 on PACAP-R2 and on PACAP-R3 were < 7.00 and 8.17, respectively. For the same substance, the “R3 Selectivity” value at PACAP-R3 was >20.
In the same order, the values of “HSDAVFTDNYTRLRKQMAAKKYLNSIKNRI [rR3P174]” are 7.74, 9.70 and 90.
In the same order, the values of “HSDAVFTDNYTRLRKQMAAKKYLNSIANKR [Peptide R3P116]” are 7.70, 9.00 and 20.
The matching figures for “HSDAVFTDNYTRLRKQMAAKKYLNSIKNKF [Peptide R3P157]”: 7.30, 9.52 and 170.
Turning to “HSDAVFTDNYTRLRKQMASKKYLNSIRNRI [rR3P193]”, the pEC50 at PACAP-R2 is 6.70. Moreover, at PACAP-R3, the negative logarithm of the EC50 (pEC50) is 8.72 and the “R3 Selectivity” value is recorded as 110.
On to “H-HSDAVFTDNYTRLRKQMAAKKYLNDIKKGGT [Peptide R3P20]”, for which the pEC50 on PACAP-R2 was 6.48. Also, on PACAP-R3, the pEC50 was 8.85 and the “R3 Selectivity” value worked out at 230.
Regarding “HSDAVFTDNYTRLRKQMAIKKYLNSIKNKR [Peptide R3P103]”, the pEC50 on PACAP-R2 is 9.40. For the same substance, at PACAP-R3, the pEC50 was 10.30 and the “R3 Selectivity” value is reported as 8.
In the case of “H-HSDAVFTDNYTRLRKQMAGKKYLNSIRNRI [rR3P190]”, the pEC50 was 6.66 at PACAP-R2 and 8.66 on PACAP-R3. Besides, the “R3 Selectivity” value at PACAP-R3 amounted to 100.
“HSDAVFTDNYTRLRKQVAAKKYLQSILNK [Peptide R3P94]”: the pEC50 is 8.05 at PACAP-R2 and 10.05 on PACAP-R3. In addition, the “R3 Selectivity” value on PACAP-R3 came to 100.
On to “HSDAVFTDNYTRLRKQMAAKKYLNSIWNKR [Peptide R3P132]”, for which the pEC50 at PACAP-R2 is 8.00. In addition, at PACAP-R3, the pEC50 is 9.70 and the “R3 Selectivity” value turned out to be 50.
For the substance HSDGIFTDSYSRYEKQMAVKKYLAAVL-NH2 [PAC14], the pEC50 on PACAP-R2 was 6.96. At PACAP-R3, the pEC50 was 8.80 and the “R3 Selectivity” value stood at 70.
On to “HSDAVFTDNYTRLRKQMAAKKYLNSIKNKT [Peptide R3P168]”, for which the pEC50 at PACAP-R2 is 7.22. Also, at PACAP-R3, the pEC50 was 9.70 and the “R3 Selectivity” value is given as 300.
With “HSDAVFTDNYTRLRKQLAAKKYLNSIKNGGT [Peptide R3P30]”, the pEC50 at PACAP-R2 is 7.70. Besides, on PACAP-R3, the negative-log EC50 (pEC50) is 9.40 and the “R3 Selectivity” value stood at 50.
For “HSDAVFTDNYTRLRKQMASKKYLNSIPNRI [rR3P183]”, the pEC50 at PACAP-R2 was < 6.82. At PACAP-R3, the pEC50 was 8.27 and the “R3 Selectivity” value is recorded as >30.
As to “HSDAVFTDNYTRLRKQMAAKKYLNSIKKGGT [Peptide R3P26]”, the values for the pEC50 on PACAP-R2 and on PACAP-R3 were < 7.00 and 9.26, respectively. In addition, on PACAP-R3, the “R3 Selectivity” value is >180.
Turning to “HSDAVFTDNYTRLRKQMAAKKYLNSIKNNR [Peptide R3P144]”, the values for the pEC50 on PACAP-R2 and on PACAP-R3 were 6.52 and 8.52, respectively. Also, at PACAP-R3, the “R3 Selectivity” value was 100.
Take “H-HSDAVFTDNYTRLRKQLAAKKYLNDIKKNQ [Peptide R3P35]”: the pEC50 on PACAP-R2 was < 7.00. Also, on PACAP-R3, the pEC50 was 8.59 and the “R3 Selectivity” value is on record as >40.
The matching figures for “HSDAVFTDNYTRLRKQVAAKKYLQSIKNK [Peptide R3P86]”: 7.05, 9.10 and 110.
Turning to “HSDAVFTDNYTRLRKQMAAKKYLNSIKNSR [Peptide R3P148]”, on PACAP-R2, the pEC50 is 7.52. Moreover, on PACAP-R3, the pEC50 is 9.52 and the “R3 Selectivity” value came to 100.
In the same order, the values of “HSDAVFTDQYTRLRKQMAAKKYLNSIKNKRY [Peptide R3P71]” are 7.25, 10.05 and 660.
On to “HSDAVFTDNYTRLRKQMARKKYLNSIKNRI [rR3P177]”, for which the pEC50 is 6.96 on PACAP-R2 and 8.80 on PACAP-R3. Further, the “R3 Selectivity” value at PACAP-R3 turned out to be 70.
With “HSDGIFTDSYSRYRKQMAVKKYLAAVKKYLAAVRHG-NH2 [Peptide R3P17]”, the pEC50 at PACAP-R2 is 8.05; on PACAP-R3 it was 8.40. The “R3 Selectivity” value on PACAP-R3 stood at 2.
Consider “HSDAVFTDNYTRLRKQMAAKKYLNSIKNKK [Peptide R3P161]”, for which the pEC50 at PACAP-R2 is 7.22. For the same substance, at PACAP-R3, the pEC50 is 9.70 and the “R3 Selectivity” value stood at 300.
In the same order, the values of “HSDAVFTDNYTRLRKQMARKKYLNSIRNRI [rR3P192]” are 7.40, 9.22 and 60.
On to “HSDAVFTDNYTRLRKQLAVKKYLNDIKNGGT [Peptide R3P29]”, for which the pEC50 at PACAP-R2 is < 7.00. On PACAP-R3, the pEC50 was 9.30 and the “R3 Selectivity” value is >200.
In the case of HSDGIFTDSYSRYREQMAVKKYLAAVL-NH2 [PAC15], the pEC50 on PACAP-R2 is 8.62. Further, at PACAP-R3, the pEC50 is 9.70 and the “R3 Selectivity” value turned out to be 12.
As for “HSDAVFTDNYTRLRKQMAGKKYLNSIKNKR [Peptide R3P101]”, the pEC50 at PACAP-R2 was 6.40; on PACAP-R3, 9.00. Further, the “R3 Selectivity” value on PACAP-R3 came out at 400.
For “HSDAVFTDNYTRLRKQMARKKYLNSIQNRI [rR3P187]”, the pEC50 at PACAP-R2 is < 6.89. For the same substance, on PACAP-R3, the pEC50 was 8.80 and the “R3 Selectivity” value was >80.
Regarding “H-HSDAVFTDNYTRLRKQMAVKKYLNSIKN [Peptide R3P42]”, at PACAP-R2, the negative logarithm of the EC50 (pEC50) was 9.52. At PACAP-R3, the pEC50 was 10.52 and the “R3 Selectivity” value came out at 10.
